These results are taken from patent US10988444B2, “Antimicrobial compounds” (NEWSOUTH INNOVATIONS PTY LIMITED, priority 2016, dated 2021).

A short description of assay [1]: Membrane conduction, tBLMs containing 30% POPG, Example 2. The note with it: negatively charged lipid, 50 μM, preliminary study. An excerpt: Tethered bilayer lipid membranes (tBLMs) associated with alternating current electrical impedance spectroscopy techniques were employed to determine whether the compounds (24a, 38b, 42d, 43d) are lytic to cell membranes. Sparsely tethered tBLMs containing 30% palmitoyl-oleoyl-phosphati-dylglycerol (POPG) were created using the solvent-exchange technique described by Cranfield et al. in 2015 (see Cranfield, C. G.; Bettler, T.; Cornell, B. Langmuir 2015, 31 (1), 292-298). The tBLM conduction responses of compounds (24a, 38b, 42d, 43d) were compared to that of LL-37, a cathelicidin AMP that is known to permeabilise membranes.

For assay [2], the system named is MRC-5 normal human lung fibroblasts. As to the kind of experiment: Cytotoxicity assay, Alamar blue, Example 2. The assay is classed as cell-based. The note with it: Homo sapiens, MRC5; MRC-5, concentration which killed half of the cells. How it is done: The in vitro toxicity of the compounds (24a, 38b, 42d, 43d) was determined against MRC-5 normal human lung fibroblasts using the Alamar blue assay (see O'Brien, J.; Wilson, I.; Orton, T.; Pognan, F. Eur. J. Biochem. 2000, 267 (17), 5421-5426). A dose-response curve for each compound was generated to determine the IC50 values (concentration of compound which killed half of the cells) and the IC50 values were then used to determine the therapeutic window (IC50 value divided by MIC value) and specificity of the compounds (Table 3).
For orientation: The colour change of resazurin is a common sign of viable cells or microbes.

For the next assay, the system named is S. aureus (SA38). As to the kind of experiment: Minimal inhibitory concentration (MIC) assay, Example 2. Type of assay: cell-based. The note with it: Staphylococcus aureus, TSB, 37° C., 24 h. As for the experimental part:
A single colony of bacteria was cultured overnight in TSB at 37° C. The resulting bacterial culture was collected by centrifugation and re-suspended in TSB twice. The optical density (OD) of the resulting culture was adjusted to OD600=0.1 in TSB (equivalent to 10^8 colony forming unit (CFU)/mL bacteria), and was further diluted to 10^5 CFU/mL in TSB. 100 μL of the bacterial solution was then added to wells of a 96-well plate containing 100 μL serially diluted compound, with final concentration ranging from 8-250 μM. The plates were then incubated at 37° C. for 24 h and the data was recorded by measuring the OD value at 600 nm using a Wallac Victor (Perkin-Elmer) microplate reader. […] Each experiment was performed in triplicate and was repeated in two independent experiments. The results of the MIC assay are given below in Table 2.

Structures are written as SMILES.

A word on the IC50: it is the midpoint of a concentration-inhibition curve. A low value points to higher potency. What is called MIC is the lowest concentration found to suppress growth. A high value points to a less susceptible organism.

Regarding `CCCCCCCCS(=O)(=O)Nc1ccc(Br)cc1C(=O)C(=O)NCCCNC(=N)N.Cl` [Compound 43d, 2-(5-Bromo-2-(octylsulfonamido)phenyl)-N-(3-guanidinopropyl)-2-oxoacetamide hydrochloride], the tBLM conduction response result in assay [1] was “showed conduction responses”. In addition, in assay [2], it took 178 µM to reach half-maximal inhibition (IC50). Also, the MIC in the assay with S. aureus (SA38) came out at 12 µM.
